Earlier results in patent publication US20230049822A1, “COMPOSITIONS COMPRISING NICLOSAMIDE FOR USE IN TREATING CONDITIONS ASSOCIATED WITH AN ABNORMAL INFLAMMATORY RESPONSE” (First Wave Bio, Inc., priority 2020, published 2023).
Where a name gives a salt, the structure may show the parent alone.

Key:
[1] = system: pathogenic T cells isolated from IBD patients; conditions: see WO 2017/040864
[2] = system: murine models of IBD; conditions: see WO 2017/040864

| dissolves in distilled water (distilled water, 20° C.) [mg/L] | solubility in acetone | solubility in ether, ethanol and chloroform | water solubility (at 20° C.) [µg/mL] | SMILES | killing of pathogenic T cells [1] | efficacy in murine models of IBD [2] |
| --- | --- | --- | --- | --- | --- | --- |
| 180 to 280 | – | – | – | O=C(Nc1ccc([N+](=O)[O-])cc1Cl)c1cc(Cl)ccc1O [ethanolamine salt, 5-chloro-N-(2-chloro-4-nitrophenyl)-2-hydroxybenzamide with 2-aminoethanol (1:1)] | – | – |
| – | soluble | sparingly soluble | 5 to 8 | O=C(Nc1ccc([N+](=O)[O-])cc1Cl)c1cc(Cl)ccc1O [Niclosamide, 5-chloro-N-(2-chloro-4-nitrophenyl)-2-hydroxybenzamide] | kills pathogenic T cells | effective |
